ChEMBL document CHEMBL1201862, “PubChem BioAssay data set” (2004)
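Method: 48-hour compound exposure of cells in 96-well plates, five concentrations, linear interpolation of endpoints. GI50 is the concentration that inhibits growth by half.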 Active and inactive are the calls of the source. Rule as the data show it: active = GI50 up to about 1.1 µM and inactive = higher.

What was measured:
Test in all cases: inhibition of tumour cell growth, NCI panel, 48 h
SN12C = system: SN12C
SK-MEL-5 = system: SK-MEL-5
NCI/ADR-RES = system: NCI/ADR-RES
UACC-62 = system: UACC-62
A549 = system: A549
SF-295 = system: SF-295
786-0 = system: 786-0
UACC-257 = system: UACC-257
OVCAR-8 = system: OVCAR-8
HT-29 = system: HT-29
IGROV-1 = system: IGROV-1
COLO 205 = system: COLO 205
HCT-15 = system: HCT-15
HOP-92 = system: HOP-92
Hs-578T = system: Hs-578T
MDA-N = system: MDA-N
SNB-75 = system: SNB-75
NCI-H460 = system: NCI-H460
MOLT-4 = system: MOLT-4
SF-268 = system: SF-268
NCI-H522 = system: NCI-H522
OVCAR-4 = system: OVCAR-4
SK-OV-3 = system: SK-OV-3
PC-3 = system: PC-3
DU-145 = system: DU-145
Malme-3M = system: Malme-3M
SK-MEL-2 = system: SK-MEL-2
HOP-62 = system: HOP-62
OVCAR-3 = system: OVCAR-3
M14 = system: M14
ACHN = system: ACHN
LOX IMVI = system: LOX IMVI
EKVX = system: EKVX
SW-620 = system: SW-620
SR = system: SR
T47D = system: T47D
MDA-MB-231 = system: MDA-MB-231
HL-60 = system: HL-60
NCI-H226 = system: NCI-H226
MCF7 = system: MCF7
A498 = system: A498
KM12 = system: KM12
K562 = system: K562
MDA-MB-435 = system: MDA-MB-435
NCI-H23 = system: NCI-H23
CCRF-CEM = system: CCRF-CEM
SF-539 = system: SF-539
CAKI-1 = system: CAKI-1
TK-10 = system: TK-10
SNB-19 = system: SNB-19
RXF 393 = system: RXF 393
RPMI-8226 = system: RPMI-8226
HCT-116 = system: HCT-116
SK-MEL-28 = system: SK-MEL-28
UO-31 = system: UO-31
OVCAR-5 = system: OVCAR-5

## COc1cc(/C=C2\CN(C)CC3=C2N=C(S)NC3c2cc(OC)c(OC)c(OC)c2)cc(OC)c1OC (stereo not given)
SN12C
  GI50: 67.9 µM (inactive)
SK-MEL-5
  GI50: 17.9 µM (inactive)
NCI/ADR-RES
  GI50: > 100 µM (inactive)
UACC-62
  GI50: 20.9 µM (inactive)
A549
  GI50: 49.9 µM (inactive)
SF-295
  GI50: 65.5 µM (inactive)
786-0
  GI50: 39.2 µM (inactive)
UACC-257
  GI50: > 100 µM (inactive)
OVCAR-8
  GI50: 83.2 µM (inactive)
HT-29
  GI50: 67.9 µM (inactive)
IGROV-1
  GI50: 71.8 µM (inactive)
COLO 205
  GI50: 79.8 µM (inactive)
HCT-15
  GI50: 80.2 µM
HOP-92
  GI50: > 100 µM (inactive)
Hs-578T
  GI50: 30.5 µM (inactive)
MDA-N
  GI50: 50.2 µM (inactive)
SNB-75
  GI50: 28.6 µM (inactive)
NCI-H460
  GI50: 54.5 µM (inactive)
MOLT-4
  GI50: 57.4 µM (inactive)
SF-268
  GI50: 94.4 µM (inactive)
NCI-H522
  GI50: 54.7 µM (inactive)
OVCAR-4
  GI50: 56 µM (inactive)
SK-OV-3
  GI50: > 100 µM (inactive)
PC-3
  GI50: 38.3 µM (inactive)
DU-145
  GI50: > 100 µM (inactive)
Malme-3M
  GI50: > 100 µM (inactive)
SK-MEL-2
  GI50: > 100 µM (inactive)
HOP-62
  GI50: 69.7 µM (inactive)
OVCAR-3
  GI50: > 100 µM (inactive)
M14
  GI50: 51.2 µM (inactive)
ACHN
  GI50: 91.2 µM (inactive)
LOX IMVI
  GI50: 36.2 µM (inactive)
EKVX
  GI50: 32.6 µM (inactive)
SW-620
  GI50: > 100 µM (inactive)
SR
  GI50: > 100 µM (inactive)
T47D
  GI50: > 100 µM (inactive)
MDA-MB-231
  GI50: 61.9 µM (inactive)

## Cc1nnc2n1-c1ccccc1-c1[nH]c3ccccc3c1C2
SN12C
  GI50: > 100 µM (inactive)
HL-60
  GI50: 21.2 µM (inactive)
SK-MEL-5
  GI50: 26.2 µM (inactive)
NCI/ADR-RES
  GI50: 69.8 µM (inactive)
NCI-H226
  GI50: > 100 µM (inactive)
UACC-62
  GI50: 25.1 µM (inactive)
A549
  GI50: 91 µM (inactive)
SF-295
  GI50: 56.1 µM (inactive)
MCF7
  GI50: > 100 µM (inactive)
A498
  GI50: 19.2 µM (inactive)
KM12
  GI50: 94.4 µM (inactive)
786-0
  GI50: 83.8 µM (inactive)
UACC-257
  GI50: 59.8 µM (inactive)
OVCAR-8
  GI50: 38.1 µM (inactive)
K562
  GI50: 24.2 µM (inactive)
HT-29
  GI50: 68.2 µM (inactive)
IGROV-1
  GI50: 70 µM (inactive)
COLO 205
  GI50: 45 µM (inactive)
MDA-MB-435
  GI50: 60.1 µM (inactive)
NCI-H23
  GI50: 63.7 µM (inactive)
HOP-92
  GI50: 93.8 µM (inactive)
Hs-578T
  GI50: > 100 µM (inactive)
MDA-N
  GI50: 61.1 µM (inactive)
SNB-75
  GI50: 8.24 µM (inactive)
NCI-H460
  GI50: 30.7 µM (inactive)
MOLT-4
  GI50: 45 µM (inactive)
CCRF-CEM
  GI50: 53.8 µM (inactive)
SF-539
  GI50: > 100 µM (inactive)
CAKI-1
  GI50: 51.1 µM (inactive)
SF-268
  GI50: > 100 µM (inactive)
OVCAR-4
  GI50: 45.2 µM (inactive)
SK-OV-3
  GI50: > 100 µM (inactive)
PC-3
  GI50: 46.1 µM (inactive)
DU-145
  GI50: > 100 µM (inactive)
Malme-3M
  GI50: 78.9 µM (inactive)
TK-10
  GI50: > 100 µM (inactive)
HOP-62
  GI50: 58.9 µM (inactive)
OVCAR-3
  GI50: 76.6 µM (inactive)
M14
  GI50: 43.1 µM (inactive)
SNB-19
  GI50: > 100 µM (inactive)
RXF 393
  GI50: 44.1 µM (inactive)
ACHN
  GI50: 39.9 µM (inactive)
RPMI-8226
  GI50: 32.2 µM (inactive)
LOX IMVI
  GI50: 89.9 µM (inactive)
HCT-116
  GI50: 54.8 µM (inactive)
EKVX
  GI50: > 100 µM (inactive)
SW-620
  GI50: > 100 µM (inactive)
SK-MEL-28
  GI50: 73.5 µM (inactive)
SR
  GI50: 22.8 µM (inactive)
T47D
  GI50: > 100 µM (inactive)
MDA-MB-231
  GI50: 58.5 µM (inactive)
UO-31
  GI50: 28.8 µM (inactive)
OVCAR-5
  GI50: > 100 µM (inactive)
